Key:
MT4 [1] = experiment: Concentration of compound required to reduce MT-4 cell viability by 50%; type: functional, cell-based; conditions: Homo sapiens
[2] = Compound was evaluated for the relative inhibition of Viral infection in MAGI cells at concentration 10 mM, using assay 3; type: functional, Homo sapiens
[3] = Compound was evaluated for the relative inhibition of Viral infection in MAGI cells at concentration 1 mM, using assay 1; type: functional, Homo sapiens
MT4 [4] = experiment: Concentration of compound required to protect 50% of MT-4 cells against retroviral cytopathic effects by HIV-1 ([…]); type: functional, cell-based; conditions: Homo sapiens
CEM-SS [5] = experiment: Compound was evaluated for the cytoprotection by XTT cytoprotection assay through the NCI AIDS Screen; type: functional, cell-based; conditions: Homo sapiens
[6] = target: T1, Human immunodeficiency virus type 1 integrase (Human immunodeficiency virus 1, UniProt Q7ZJM1)
T1 sequence (Q7ZJM1 whole entry): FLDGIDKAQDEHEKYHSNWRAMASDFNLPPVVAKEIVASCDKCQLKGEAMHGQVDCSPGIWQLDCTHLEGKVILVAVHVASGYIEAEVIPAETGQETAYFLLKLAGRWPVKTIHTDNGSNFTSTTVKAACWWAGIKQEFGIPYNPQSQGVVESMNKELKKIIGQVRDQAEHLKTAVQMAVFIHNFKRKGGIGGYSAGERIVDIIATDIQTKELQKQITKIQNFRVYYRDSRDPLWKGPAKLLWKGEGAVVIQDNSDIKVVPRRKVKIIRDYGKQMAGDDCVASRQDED
Description: Inhibition of HIV-1 integrase by radiolabeled oligonucleotide-based assay integration

[7] = target: T1, Human immunodeficiency virus type 1 integrase; remark: listed apart in the source
Description: Compound was evaluated for the inhibitory concentration against HIV-1 integrase by radiolabeled oligonucleotide-based assay 3''-processing

CEM-SS [8] = experiment: Compound was evaluated for the cytoprotection of CEM-SS cells by XTT cytoprotection assay through the NCI AIDS Screen; type: functional, cell-based; conditions: Homo sapiens
[9] = Compound was evaluated for the relative Viral infection in MAGI cells at concentration 100 mM, using assay 2
[10] = Compound was evaluated for the relative inhibition of Viral infection in MAGI cells at concentration 10mM, using assay 2; type: functional, Homo sapiens
MT4 [11] = experiment: Concentration of compound required to protect 50% of MT-4 cells against retroviral cytopathic effects by HIV-2 (ROD); type: functional, cell-based; conditions: Homo sapiens
[12] = Compound was evaluated for the relative inhibition of Viral infection in MAGI cells at concentration 0.1 mM, using assay 3; type: functional, Homo sapiens
[13] = Compound was evaluated for the relative inhibition of Viral infection in MAGI cells at concentration 10 mM, using assay 1; type: functional, Homo sapiens
[14] = Compound was evaluated for the relative inhibition of Viral infection in MAGI cells at concentration 100 mM, using assay 1; type: functional, Homo sapiens
CEM-SS [15] = experiment: Compound was evaluated for the cytoprotection of CEM-SS cells by XTT cytoprotection assay through the NCI AIDS Screen (EC50); type: functional, cell-based; conditions: Homo sapiens
CEM-SS [16] = experiment: Compound was evaluated for the cytoprotection of CEM-SS cells by XTT cytoprotection assay through the NCI AIDS Screen (IC50); type: functional, cell-based; conditions: Homo sapiens
CEM-SS [17] = experiment: Compound was evaluated for the effect of Order of Addition on Cytoprotection against HIV-1RF at dilution 100, Pretreat only (100 uM); type: functional, Homo sapiens
CEM-SS [18] = experiment: Compound was evaluated for the effect of Order of Addition on Cytoprotection against HIV-1RF at dilution 333, Pretreat only (100 uM); type: functional, Homo sapiens
CEM-SS [19] = experiment: Compound was evaluated for the effect of Order of Addition on Cytoprotection against HIV-1RF at dilution 1000, Pretreat only (100 uM); type: functional, Homo sapiens

Row | IC50 [6] | IC50 [7] | Compound | IC50 (MT4 [1]) | relative infection [2] | relative infection [3] | EC50 (MT4 [4]) | EC50 (CEM-SS [5]) | IC50 (CEM-SS [8]) | relative infection [9] | relative infection [10] | EC50 (MT4 [11]) | relative infection [12] | relative infection [13] | relative infection [14] | EC50 (CEM-SS [15]) | IC50 (CEM-SS [16]) | Control (CEM-SS [17]) | Control (CEM-SS [18]) | Control (CEM-SS [19])
1 | 6.2 µM | 9.8 µM | CC(=O)Oc1ccc(/C=C/C(=O)O[C@@H](C(=O)O)[C@@H](OC(=O)/C=C/c2ccc(OC(C)=O)c(OC(C)=O)c2)C(=O)O)cc1OC(C)=O | 47.1 µM | 42% | 48% | 4.1 µM | 16 µM | 50 µM | 2% | 50% | 10.1 µM | 85% | 73% | 4% | – | – | – | – | –
2 | 100 µM | > 333 µM | CC(=O)Oc1ccc(/C=C/C(=O)NCCOC(=O)/C=C/c2ccc(OC(C)=O)c(OC(C)=O)c2)cc1OC(C)=O | – | – | – | – | – | – | – | – | – | – | – | – | > 15.6 µM | 15.6 µM | – | – | –
3 | – | – | NS(=O)(=O)c1ccc(NC(=O)c2ccccc2SSc2ccccc2C(=O)Nc2ccc(S(N)(=O)=O)cc2)cc1 | – | – | – | – | – | – | – | – | – | – | – | – | – | – | 31% | 4% | 6%

Reference: ChEMBL document CHEMBL1132706 (J Med Chem, 1999)
